{"source": "paper PMC10500001", "about": "“Dual hypoxia-responsive supramolecular complex for cancer target therapy” (Nature Communications, 2023)", "key": {"PANC1 tumor-bearing mice": {"test_system": "PANC1 tumor-bearing mice", "assay": "In vivo fluorescence imaging", "details": "single mouse", "method": "For animals and tumor model, male BALB/c nude mice at 5–6 weeks were purchased from Vital River Laboratory Animal Technology (Beijing, China). All animal experiments were performed according to the institutional animal care guidelines established by the Institutional Animal Care and Use Committee of Nankai University. To establish the PANC1 tumor-bearing mouse model, 1 × 10^6 PANC1 cells were injected subcutaneously into the right chest of BALB/c nude mice. After the tumor grows to a suitable size, the tumor was divided into small pieces and then subcutaneously incubated into the right chest of other mice. […] The ex vivo fluorescence imaging of major organs at 24 h post injection was imaged by IVIS. Fluorescent images were analyzed using Living Image 3.1 (Caliper Life Sciences)."}, "PANC1 cells [1]": {"test_system": "PANC1 cells", "assay": "CLSM fluorescence imaging in living cells under normoxic and hypoxic conditions", "type": "cell-based, human", "details": "10 μM", "method": "In this assay, SBE-β-CD was employed to generate CY5-DM@SBE-β-CD as a benchmark. […] The increased fluorescence manifested the hypoxia-selective release performance of the supramolecular complex.\nPANC1 cells (1 × 10^5 cells/well) were seeded into the confocal imaging chambers. […] After a 6 h incubation under normoxic conditions, the culture medium was exchanged with fresh medium. Thereafter, the cells were incubated at 37 °C for 18 h under either normoxic or hypoxic conditions, respectively. Subsequently, the cells were fixed in 4% paraformaldehyde (PFA; Biosharp, Hefei, China) for 15 min, washed with PBS buffer three times and then imaged using CLSM. Cell nuclei were counterstained with DAPI (C0060, Solarbio, Beijing, China) for 5 min."}, "PANC1 cells [2]": {"test_system": "PANC1 cells", "assay": "Cellular uptake mechanism with endocytosis inhibitors (flow cytometry)", "type": "cell-based, human", "details": "uptake of the SAC5A complex with the inhibitor, 4 replicates", "method": "To examine the cellular uptake mechanism of SAC5A complex, PANC1 cells (3 × 10^5 cells/well) were seeded into the six-well plates and incubated overnight. The cells were pretreated with different endocytosis inhibitors for 1 h: chlorpromazine (CHP, 20 μM, an inhibitor of clathrin-mediated endocytosis), Amiloride (AMI, 500 μM, an inhibitor of macropinocytosis), Genistein (GEN, 200 μM, an inhibitor of caveolae-mediated endocytosis), methyl-β-cyclodextrin (M-β-CD, 5 mM, an inhibitor of lipid rafts-mediated endocytosis), the cells were also pre-incubated under 4 °C for 1 h (energy-dependent endocytosis). […] After that, the cells were collected and washed three times with PBS, and then analyzed by flow cytometry. All experiments were carried out four times. […]\nChlorpromazine (CHP): inhibitor of clathrin-mediated endocytosis; amiloride (AMI): inhibitor of macropinocytosis; Genistein (GEN): inhibitor of caveolae-mediated endocytosis; Methyl-β-cyclodextrin (M-β-CD): lipid rafts-mediated endocytosis; 4 °C: energy-mediated endocytosis. Data are presented as […]"}, "[3]": {"design": "method as in PMID 17268062", "details": "cited from earlier work"}, "[4]": {"assay": "Competitive fluorescence titration of LCG@SC5A with NMP-BE", "type": "binding", "details": "HEPES pH 7.4", "method": "The complexation of SAC5A with reporter dye (RhB) was measured by direct fluorescence titrations. A mixed solution containing known amounts of SAC5A and RhB was sequentially injected into 2.50 mL RhB solution in a quartz cuvette. The dye concentrations in mixed solution and cuvette are the same to keep dye concentration constant in the course of titrations. The fluorescence intensity was measured (λex = 554 nm for RhB) before the first addition and after every addition until a plateau was reached. By fitting the fluorescence intensity (λem = 575 nm for RhB) according to a 1:1 host-guest binding stoichiometry, the association constant was obtained. SC5A (LCG) and SBE-β-CD (NR) used the same method.\nThe complexation of SAC5A with NMP-BE was measured by competitive fluorescence titrations. […] The fluorescence intensity was measured (λex = 554 nm for RhB) before the first addition and after every addition. The association constant was obtained by fitting fluorescence intensity (λem = 575 nm for RhB) according to a 1:1 competitive binding model. […]\n2.8 Fluorescence titrations of SC5A and SBE-β-CD with NMP-BE\nSupplementary Figure 14. Competitive fluorescence titration of LCG@SC5A (1.0/1.0 µM) with NMP-BE (up to 80 µM) in HEPES buffer (10 mM, pH = 7.4) at 25 ℃, λex ="}, "[5]": {"design": "method as in earlier work", "details": "ref 2 of the supplement; cited from earlier work"}}, "note": "“And” between values parts separate entries of the source, which are not always exact repeats. Equal values may be shown once.", "data": [{"molecule": "CN1C(=CC=CC=CC2=[N+](C)c3ccccc3C2(C)C)C(C)(C)c2ccccc21", "note": "[CY5-DM, 1,1’,3,3,3’,3’-hexamethylindodicarbocyanine]", "values": [{"measurement": "FL intensity of the tumor in vivo", "setting": "PANC1 tumor-bearing mice; 1h post iv injection", "result": "1.80E+09 and 1.62E+09"}, {"measurement": "FL intensity of the tumor in vivo", "setting": "PANC1 tumor-bearing mice; 3h post iv injection", "result": "1.74E+09 and 1.60E+09"}, {"measurement": "FL intensity of the tumor in vivo", "setting": "PANC1 tumor-bearing mice; 6h post iv injection", "result": "1.41E+09 and 1.34E+09 and 1.52E+09"}, {"measurement": "FL intensity of the tumor in vivo", "setting": "PANC1 tumor-bearing mice; 12h post iv injection", "result": "1.33E+09 and 1.26E+09"}, {"measurement": "FL intensity of the tumor in vivo", "setting": "PANC1 tumor-bearing mice; 24h post iv injection", "result": "8.57E+08 and 6.21E+08 and 9.14E+08"}, {"measurement": "difference in fluorescence intensities normoxic versus hypoxic", "setting": "PANC1 cells [1]", "result": "no significant difference"}]}, {"molecule": "O=c1c(-c2ccc(O)cc2)coc2cc(O)cc(O)c12", "note": "[GEN]", "values": [{"measurement": "cellular uptake relative to Ctrl (flow cytometry) in presence of endocytosis inhibitor", "setting": "PANC1 cells [2]", "result": "88.04 and 87.28 and 70.24 and 68.53"}]}, {"molecule": "C=C1/C=C\\C(=O)N(C)CC(=O)NC(C(O)C(N)=O)C(=O)OC(C(C)CCCCCCCCCCCC(C)C)C(C)C(=O)N1", "note": "(stereo not shown) [rakicidin A]", "values": [{"measurement": "hypoxia-selective cytotoxicity", "setting": "[3]", "result": "moderate hypoxia-selective cytotoxicity"}]}, {"molecule": "N=C(N)NC(=O)c1nc(Cl)c(N)nc1N", "note": "[AMI]", "values": [{"measurement": "cellular uptake relative to Ctrl (flow cytometry) in presence of endocytosis inhibitor", "setting": "PANC1 cells [2]", "result": "144.29 and 129.79 and 106.33 and 103.16"}]}, {"molecule": "M-β-CD", "values": [{"measurement": "cellular uptake relative to Ctrl (flow cytometry) in presence of endocytosis inhibitor", "setting": "PANC1 cells [2]", "result": "121.64 and 117.67 and 92.45 and 90.16"}]}, {"molecule": "CN(C)CCCN1c2ccccc2Sc2ccc(Cl)cc21", "note": "[CHP]", "values": [{"measurement": "cellular uptake relative to Ctrl (flow cytometry) in presence of endocytosis inhibitor", "setting": "PANC1 cells [2]", "result": "134.50 and 125.70 and 108.52 and 108.27"}]}, {"molecule": "O=S(=O)(O)c1cc2c(O)c(c1)Cc1cc(S(=O)(=O)O)cc(c1O)Cc1cc(S(=O)(=O)O)cc(c1O)Cc1cc(S(=O)(=O)O)cc(c1O)Cc1cc(S(=O)(=O)O)cc(c1O)C2", "note": "[SC5A, sulfonated calix[5]arene]", "values": [{"measurement": "bonding ability to NMP-BE", "setting": "[4]", "result": "almost no bonding ability"}, {"measurement": "1:1 binding affinity between SC5A and LCG", "setting": "[5]", "result": "1.48 106 M−1"}]}]}
